Reference: US20020034545A1, “Particulate composition of eletriptan” (priority 2000, published 2002)
In brackets after ≈: the same amount, converted by molar mass. Where a name gives a salt, the structure may show the parent alone.

Assay: physchem
Format: physicochemical
Description: Several salts of eletriptan have been identified that have properties which make them particularly suitable for development as drug substances. […] It is therefore desirable to provide a controlled release formulation capable of achieving a sigmoidal pattern of drug release and suitable for oral administration that is equally useful for the delivery of any form of eletriptan, regardless of its solubility.

aqueous solubility [mg/mL] | solubility (20 °C, water, aqueous solubility) [µg/mL] | Compound
2.5 (≈ 6.54 mM) |  | CN1CCC[C@@H]1Cc1c[nH]c2ccc(CCS(=O)(=O)c3ccccc3)cc12 [eletriptan free base, 3-{[1-methylpyrrolidin-2(R)-yl]methyl}-5-(2-phenylsulfonylethyl)-1H-indole]
 | 4000 | CN1CCC[C@@H]1Cc1c[nH]c2ccc(CCS(=O)(=O)c3ccccc3)cc12 [hydrobromide salt, eletriptan hydrobromide]
> 200 |  | eletriptan hemisulphate [hemisulphate salt]
